The values that follow come from patent US8283465B2, “Triazolopyridine compound, and action thereof as prolyl hydroxylase inhibitor or erythropoietin production-inducing agent” (Japan Tobacco Inc., priority 2009, dated 2012).

As usually defined, the IC50 is the concentration that inhibits the measured activity by half. A word on the EC50: it is the concentration needed to bring the measured effect to its halfway point.

One assay deals with T1, human PHD2 (Homo sapiens, UniProt Q9GZT9).
T1 construct: made in house; host or cells: Sf9 insect cells (baculovirus, pVL1393 vector)
T1 sequence (Q9GZT9 whole entry): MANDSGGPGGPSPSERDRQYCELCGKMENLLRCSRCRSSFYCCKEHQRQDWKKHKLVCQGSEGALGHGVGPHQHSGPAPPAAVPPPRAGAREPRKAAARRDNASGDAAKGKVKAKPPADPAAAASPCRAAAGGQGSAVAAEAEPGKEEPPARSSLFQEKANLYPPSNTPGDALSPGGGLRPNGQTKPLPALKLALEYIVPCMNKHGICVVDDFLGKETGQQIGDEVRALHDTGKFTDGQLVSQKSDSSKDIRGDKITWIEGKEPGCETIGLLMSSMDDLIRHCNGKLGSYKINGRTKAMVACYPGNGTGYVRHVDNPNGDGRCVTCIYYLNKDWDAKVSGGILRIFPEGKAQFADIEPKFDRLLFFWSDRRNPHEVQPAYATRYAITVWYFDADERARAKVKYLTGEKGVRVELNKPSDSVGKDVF
In words: Measurement of human PHD inhibitory activity (TR-FRET, hydroxylation of HIF-1α partial peptide). The format is biochemical. The conditions noted are these: human PHD2 enzyme 1 nM, 25° C. 30 min, values consisting solely of numbers; read-out: IC50 (μM) in vitro, human PHD inhibitory activity. The gist of the method:
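FLAG-tagged human PHD2 from Sf9 cells (1 nM final) hydroxylates a biotinylated 19-residue HIF-1α peptide, 30 min at 25° C. After EDTA stop, hydroxyproline detected by TR-FRET using Eu/Xlent-labelled VBC complex; % inhibition relative to no-enzyme and no-compound wells.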
In general terms: Time-resolved FRET reads energy transfer from a long-lived donor to a nearby acceptor.

Assay [1] concerns human EPO production, Hep3B cells. Put plainly: Human EPO production activity in Hep3B cells (EPO-ELISA of culture supernatant). The format is cell-based. The conditions noted are these: for EC50: Homo sapiens, 24 hr incubation, values consisting solely of numbers, read-out: EC50 (μM) in vitro, human EPO production activity; for production activity (%) at 30 μM in vitro, human EPO: 24 hr, values containing %, relative to maximum production. In outline:
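Hep3B cells were dosed with compound 24 h after plating and incubated 24 h at 37° C. Secreted EPO in supernatant was measured by ELISA. Values are EC50, or activity (%) at 30 μM scaled between untreated and maximum production.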

Where a name gives a salt, the structure may show the parent alone.

Regarding `O=C(O)CNC(=O)c1c(O)cc(-c2ccc(Cl)cc2F)n2ncnc12` [Example 62, {[5-(4-chloro-2-fluorophenyl)-7-hydroxy[1,2,4]triazolo[1,5-a]pyridine-8-carbonyl]amino} acetic acid hydrochloride], at human PHD2, the IC50 was 0.28 µM. For the same compound, the EC50 in assay [1] amounted to 10.1 µM.
Take `Cl.O=C(O)CNC(=O)c1c(O)cc(CCc2cccc(C(F)(F)F)c2)c2ncnn12` [Example 101, ({6-hydroxy-8-[2-(3-trifluoromethyl phenyl)ethyl] [1,2,4]triazolo[1,5-a]pyridine-5-carbonyl}amino) acetic acid hydrochloride]: the IC50 at human PHD2 amounted to 0.37 µM. For the same compound, the “production activity (%) at 30 μM in vitro, human EPO” value (from here on “production activity (%) at 30 μM”) in assay [1] came to 6%.
As for `O=C(O)CNC(=O)c1c(O)cc(-c2cc(F)cc(C(F)(F)F)c2)c2ncnn12` [Example 104, {[8-(3-fluoro-5-trifluoromethyl-phenyl)-6-hydroxy[1,2,4]triazolo[1,5-a]pyridine-5-carbonyl]amino} acetic acid hydrochloride], the IC50 at human PHD2 turned out to be 0.19 µM. Also, the EC50 in assay [1] stood at 6.3 µM.
The like results for `CC(C)(C)CCc1cc(O)c(C(=O)NCC(=O)O)c2ncnn12` [Example 24, {[5-(3,3-dimethylbutyl)-7-hydroxy[1,2,4]triazolo[1,5-a]pyridine-8-carbonyl]amino}acetic acid hydrochloride] were, in that order, 0.57 µM and 5.4 µM.
For the compound `Cl.O=C(O)CNC(=O)c1c(O)ccn2c(CCc3ccccc3)nnc12` [Example 114, [(7-hydroxy-3-phenethyl[1,2,4]triazolo[4,3-a]pyridine-8-carbonyl)amino] acetic acid hydrochloride], the IC50 at human PHD2 is 1.2 µM. Also, in assay [1], the “production activity (%) at 30 μM” value is 0%.
Turning to `O=C(O)CNC(=O)c1c(O)cc(CCc2cc(F)cc(F)c2)c2ncnn12` [Example 109, ({8-[2-(3,5-difluoro-phenyl)-ethyl]-6-hydroxy[1,2,4]triazolo[1,5-a]pyridine-5-carbonyl}amino) acetic acid hydrochloride], the IC50 on human PHD2 was determined as 0.17 µM. The EC50 in assay [1] amounted to 13.7 µM.
In the same order, the values of `Cc1cc(F)cc(-c2cc(O)c(C(=O)NCC(=O)O)c3ncnn23)c1` [Example 79, {[5-(3-fluoro-5-methylphenyl)-7-hydroxy[1,2,4]triazolo[1,5-a]pyridine-8-carbonyl]amino} acetic acid hydrochloride] are 0.23 µM and 7.8 µM.
In the same order, the values of `O=C(O)CNC(=O)c1c(O)cc(-c2ccc(F)cc2F)n2ncnc12` [Example 77, {[5-(2,4-difluorophenyl)-7-hydroxy[1,2,4]triazolo[1,5-a]pyridine-8-carbonyl]amino} acetic acid hydrochloride] are 0.24 µM and 18.7 µM.
Regarding `CCCc1c(Cl)c(O)c(C(=O)NCC(=O)O)c2ncnn12.Cl` [Example 81, [(6-chloro-7-hydroxy-5-propyl[1,2,4]triazolo[1,5-a]pyridine-8-carbonyl)amino] acetic acid hydrochloride], on human PHD2, the IC50 stood at 6.09 µM. Moreover, the “production activity (%) at 30 μM” value in assay [1] is reported as 33%.
On to `O=C(O)CNC(=O)c1c(O)cc(CCc2ccc(Cl)cc2)n2ncnc12` [Example 14, ({5-[2-(4-chlorophenyl)ethyl]-7-hydroxy[1,2,4]triazolo[1,5-a]pyridine-8-carbonyl}amino)acetic acid hydrochloride], for which the IC50 at human PHD2 worked out at 0.23 µM. In assay [1], the EC50 was determined as 5.1 µM.
With `CCC(C)(C)CCc1cc(O)c(C(=O)NCC(=O)O)c2ncnn12` [Example 48, hydrochloride], the IC50 at human PHD2 is 0.59 µM. The EC50 in assay [1] amounted to 4.5 µM.
Consider `O=C(O)CNC(=O)c1c(O)cc(-c2ccc(Cl)c(F)c2)n2ncnc12` [Example 78, {[5-(4-chloro-3-fluorophenyl)-7-hydroxy[1,2,4]triazolo[1,5-a]pyridine-8-carbonyl]amino} acetic acid hydrochloride], for which the IC50 at human PHD2 turned out to be 0.15 µM. Moreover, the EC50 in assay [1] is 6.6 µM.
For `O=C(O)CNC(=O)c1c(O)ccn2c(-c3ccccc3)nnc12` [Example 113, [(7-hydroxy-3-phenyl[1,2,4]triazolo[4,3-a]pyridine-8-carbonyl)amino] acetic acid], at human PHD2, the IC50 came to 0.56 µM. Besides, the “production activity (%) at 30 μM” value in assay [1] turned out to be 0%.
The like results for `Cl.O=C(O)CNC(=O)c1c(O)cc(Cc2ccccc2)c2ncnn12` [Example 86, [(8-benzyl-6-hydroxy[1,2,4]triazolo[1,5-a]pyridine-5-carbonyl)amino] acetic acid hydrochloride] were, in that order, 0.83 µM and 6%.
`CC(C)CCc1cc(O)c(C(=O)NCC(=O)O)c2ncnn12` [Example 18, {[7-hydroxy-5-(3-methylbutyl)[1,2,4]triazolo[1,5-a]pyridine-8-carbonyl]amino}acetic acid hydrochloride]: on human PHD2, the IC50 was 0.48 µM. Also, the EC50 in assay [1] is 6.1 µM.
On to `CC(C)(NC(=O)c1c(O)cc(-c2cc(F)cc(F)c2)n2ncnc12)C(=O)O` [Example 68, 2-{[5-(3,5-difluorophenyl)-7-hydroxy[1,2,4]triazolo[1,5-a]pyridine-8-carbonyl]amino}-2-methylpropionic acid hydrochloride], for which the IC50 at human PHD2 was 5.94 µM. In addition, the “production activity (%) at 30 μM” value in assay [1] was 0%.
Consider `O=C(O)CNC(=O)c1c(O)cc(-c2ccc(Cl)c(Cl)c2)c2ncnn12` [Example 95, {[8-(3,4-dichlorophenyl)-6-hydroxy[1,2,4]triazolo[1,5-a]pyridine-5-carbonyl]amino} acetic acid hydrochloride], for which, at human PHD2, the IC50 was determined as 0.12 µM. In addition, the EC50 in assay [1] was 4.3 µM.
For `O=C(O)CNC(=O)c1c(O)c(Cl)c(CCc2ccccc2)n2ncnc12` [Example 80, [(6-chloro-7-hydroxy-5-phenethyl[1,2,4]triazolo[1,5-a]pyridine-8-carbonyl)amino] acetic acid hydrochloride], at human PHD2, the IC50 was found to be 0.71 µM. Also, the EC50 in assay [1] was found to be 23.3 µM.
